The source of these data is patent US10294246B2, “Substituted boronic acids and boronate esters as immunoproteasome inhibitors” (MERCK PATENT GMBH, priority 2014, dated 2019).

The target of assay [1] is human constitutive proteasome (Beta5) (Homo sapiens (Human), UniProt P28074). Kind of assay: Determination of Beta5 activity (fluorescence intensity assay, Suc-LLVY-AMC). Conditions: purified human constitutive proteasome 1.25 nM, Suc-LLVY-AMC 40 μM. The class given is biochemical. Put shortly:
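Purified constitutive proteasome (1.25 nM) was preincubated with compounds 20 min at 25 °C in 50 mM Tris pH 7.4, 0.03% SDS, 1 mM EDTA, 1% DMSO. Suc-LLVY-AMC (40 μM) was then added for 60 min at 37 °C. AMC fluorescence was read at ex 350/em 450 nm.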

Assay [2] has as its target human immunoproteasome (LMP7) (Homo sapiens (Human), UniProt P28062). Kind of assay: Determination of LMP7 activity (fluorescence intensity assay, Suc-LLVY-AMC). The class given is biochemical. The following applies: for Selectivity LMP7 vs Beta5: LMP7 versus Beta5; for IC50: purified human immunoproteasome 0.25 nM, Suc-LLVY-AMC 40 μM. The method in brief:
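0.25 nM purified human immunoproteasome preincubated 20 min at 25 °C with serially diluted compounds in 50 mM Tris pH 7.4, 0.03% SDS, 1 mM EDTA, 1% DMSO. Reaction started with 40 μM Suc-LLVY-AMC, run 60 min at 37 °C. Fluorescence read at ex 350/em 450 nm.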

In the case of `Cc1cccc2c1OCC2C[C@H](NC(=O)Cc1ccccc1C(=O)N(C)C)B(O)O` (stereo partly drawn) [Compound No. 100, [(1R)-1-[[2-[2-(dimethylcarbamoyl)phenyl]acetyl]amino]-2-(7-methyl-2,3-dihydrobenzofuran-3-yl)ethyl]boronic acid], the 50% inhibitory concentration (IC50) in assay [1] was more than 5000 nM. Besides, in assay [2], the “Selectivity LMP7 vs Beta5” value was “+++++ (Selectivity ≥ 100)” and the IC50 is 50 to 500 nM.
Consider `O=C(Cc1ccccc1OC(F)(F)F)N[C@@H](Cc1coc2ccccc12)B(O)O` [Compound No. 28, [(1R)-2-(benzofuran-3-yl)-1-[[2-[2-(trifluoromethoxy)phenyl]acetyl]-amino]ethyl]boronic acid], for which the IC50 in assay [1] is 500 to 5000 nM; in assay [2], less than 50 nM. The “Selectivity LMP7 vs Beta5” value in assay [2] is given as “+++++ (Selectivity ≥ 100)”.
Turning to `COc1ccc(OCCC(=O)N[C@@H](Cc2ccc(C)cc2)B(O)O)cc1` [Compound No. 5, [(1R)-1-[3-(4-methoxyphenoxy)propanoylamino]-2-(p-tolyl)ethyl]boronic acid], the IC50 in assay [1] was in the range of 50 to 500 nM. Also, in assay [2], the “Selectivity LMP7 vs Beta5” value is listed as “++ (10 ≤ Selectivity < 50)” and the concentration for half-maximal inhibition (IC50) was less than 50 nM.
In the same order, the values of `O=C(Cc1ccccc1)N[C@@H](Cc1coc2ccccc12)B(O)O` [Compound No. 6, [(1R)-2-(benzofuran-3-yl)-1-[(2-phenylacetyl)amino]ethyl]boronic acid] are 50 to 500 nM, “+++++ (Selectivity ≥ 100)” and less than 50 nM.
Regarding `O=C(N[C@@H](Cc1coc2ccccc12)B(O)O)[C@@H](CO)c1ccccc1` [Compound No. 59, [(1R)-2-(benzofuran-3-yl)-1-[[(2R)-3-hydroxy-2-phenyl-propanoyl]-amino]ethyl]boronic acid], the IC50 in assay [1] lay in the range of 50 to 500 nM. Besides, in assay [2], the “Selectivity LMP7 vs Beta5” value is recorded as “++++ (70 ≤ Selectivity < 100)” and the half-maximal inhibitory concentration (IC50) is less than 50 nM.
Consider `C[C@@H](C(=O)N[C@@H](Cc1coc2ccccc12)B(O)O)c1ccccc1` [Compound No. 45, [(1R)-2-(benzofuran-3-yl)-1-[[(2R)-2-phenylpropanoyl]amino]ethyl]-boronic acid], for which the IC50 in assay [1] is 500 to 5000 nM; in assay [2] it was less than 50 nM. The “Selectivity LMP7 vs Beta5” value in assay [2] is given as “+++ (50 ≤ Selectivity < 70)”.
`N#Cc1ccc(CC(=O)N[C@@H](Cc2coc3ccccc23)B(O)O)cc1` [Compound No. 9, [(1R)-2-(benzofuran-3-yl)-1-[[2-(4-cyanophenyl)acetyl]amino]ethyl]-boronic acid] returned an IC50 in assay [1] of 50 to 500 nM. Further, in assay [2], the “Selectivity LMP7 vs Beta5” value is “++++ (70 ≤ Selectivity < 100)” and the IC50 was less than 50 nM.
The like results for `COc1ccc(CCC(=O)N[C@H](CC2COc3c(C)cccc32)B(O)O)nc1` (stereo partly drawn) [Compound No. 87, [(1S)-1-[3-(5-methoxy-2-pyridyl)propanoylamino]-2-(7-methyl-2,3-dihydrobenzofuran-3-yl)ethyl]boronic acid] were, in that order, more than 5000 nM, “+ (Selectivity < 10)” and 500 to 5000 nM.
The like results for `O=C(Cc1ccccc1)N[C@@H](Cc1coc2c(F)cccc12)B(O)O` [Compound No. 125, [(1R)-2-(7-fluorobenzofuran-3-yl)-1-[(2-phenylacetyl)amino]ethyl]-boronic acid] were, in that order, 50 to 500 nM, “+++++ (Selectivity ≥ 100)” and less than 50 nM.
`Cc1cccc2c1OC[C@@H]2C[C@H](NC(=O)Cc1ccccc1)B(O)O` [Compound No. 127, [(1R)-2-[(3R)-7-methyl-2,3-dihydrobenzofuran-3-yl]-1-[(2-phenylacetyl)amino]ethyl]boronic acid]: the 50% inhibitory concentration (IC50) in assay [1] was more than 5000 nM; in assay [2], 500 to 5000 nM. The “Selectivity LMP7 vs Beta5” value in assay [2] was “++ (10 ≤ Selectivity < 50)”.
